Data reported in patent US4199598A, “Method of treating noradrenaline dysfunction or for dopamine-β-hydroxylase inhibition” (Richter Gedeon Vegyeszeti Gyar Rt., priority 1976, dated 1980).

Columns and labels:
dopamine-β-hydroxylase [1] = assay: Adrenaline content of adrenal gland (dopamine-β-hydroxylase inhibiting effect); assay type: in vivo, male Wister rats; details: rats, i.p., 4 hours
Protocol: (§1) The dopamine-β-hydroxylase inhibiting effects of the compounds according to the invention were examined by the following tests:
(§2) The tests were performed on male Wister rats weighing 150 to 200 g. The dopamine-β-hydroxylase inhibiting effects of the compounds were evaluated by determining the change of noradrenaline, dopamine and adrenaline levels of the cerebrum, heart, spleen and adrenal gland. The serotonine and 5-hydroxy-indolyl-acetic acid levels of the cerebrum were also determined. The measurements were performed as follows:
(§3) The animals were decapitated, the cerebrum, heart, spleen and adrenal gland were removed quickly, and the organs were frozen by placing them onto a metal sheet cooled with dry ice. The frozen organs were stored for a maximum of one night at -20° C.
Determination of the adrenaline content of adrenal gland
The adrenal glands were freed from fat and homogenized in 3.0 ml of ice-cold 0.4 N perchloric acid. The homogenized mixtures were centrifuged for 10 minutes at 0° C. with a speed of 3200 r.p.m. on a Janetzky K-70 type centrifuge. 0.05 ml samples were taken from the supernatant, and the adrenaline level was determined directly by the method of Laverty et al (Anal. Biochem., Vol. 22, p. 269, 1968).
(§4) In the tests disulfiram, 2,2-dipyridyl, bis(1-methyl-4-homopiperazinyl-thiocarbonyl)-disulfide, sodium diethyldithiocarbamate and N-phenyl-N'-(2-thiazolyl)-thiourea were used as reference substances. The values indicated in Table 1 are percentages in relation to the amine levels of the controls measured in the same tests (± Standard Error). The statistical calculations were performed on a TPA/i type computer, using Student's test.

dopamine-β-hydroxylase [2] = details: in vitro, in words, prior art; cited from earlier work
dopamine-β-hydroxylase [3] = assay: Noradrenaline content of spleen (dopamine-β-hydroxylase inhibiting effect); assay type: in vivo, male Wister rats; details: rats, i.p., 37.5 mg/kg, 4 hours
Protocol: as §1, §2, §3
(§5) Determination of the noradrenaline content of heart and spleen
(§6) The organs were weighed in frozen state and then homogenized in 5.0 ml of 0.4 N perchloric acid containing 0.05% of EDTA-Na2 and 0.1% of Na2 S2 O5. The homogenized mixtures were centrifuged as described above for the treatment of adrenal gland, the supernatants were decanted, and the pH was adjusted to 8.0±0.1 with a 0.1 molar tris buffer containing 20 g/l of NaOH and 25 g/l of EDTA-Na2. 100 mg of prepared Al2 O3 (Anton et al: J. Pharm. Ther., Vol. 138, p. 360, 1962) were added to the samples, and the mixtures were shaken mechanically for 20 minutes. Thereafter the Al2 O3 were washed with 2.10 ml of distilled water, and the noradrenaline was eluted with 1.0 ml of 0.05 N perchloric acid. 0.5 ml samples of the eluate were applied for the determination of noradrenaline.
(§7) Noradrenaline was determined according to the method of Shellenberger et al (Anal. Biochem., Vol. 39, p. 356, 1971), with the following modifications of the basic procedure: 0.5 ml of 0.1 molar Na-K-phosphate buffer, containing 9 g/l of EDTA-Na2, were added to 0.5 ml of the eluate, and the catecholamines (noradrenaline in the examination of heart and spleen and noradrenaline and dopamine in the examination of the cerebrum) were oxidized with 0.1 ml of a 0.1 N iodine solution in 5% potassium iodide. […] Thereafter the samples were placed for 5 minutes in a drying oven heated to 100° C., and then the samples were cooled with ice water. The fluorescence of noradrenaline was measured with an OPTON spectrophotometer at wavelengths of 390 nm (excitation) and 490 nm (emission).
as §4

dopamine-β-hydroxylase [4] = assay: Noradrenaline content of heart (dopamine-β-hydroxylase inhibiting effect); assay type: in vivo, male Wister rats; details: rats, i.p., 4 hours
Protocol: as §1, §2, §3, §5, §6, §7, §4

dopamine-β-hydroxylase [5] = assay: Noradrenaline, dopamine, serotonine and 5-hydroxy-indolylacetic acid contents of cerebrum (dopamine-β-hydroxylase inhibiting effect); assay type: in vivo, male Wister rats; details: rats, i.p., 4 hours
Protocol: as §1, §2, §3, §7
Determination of the noradrenaline, dopamine, serotonine and 5-hydroxy-indolylacetic acid contents of cerebrum
The brains were homogenized in 10 parts by volume of 0.4 N perchloric acid. The homogenized mixture was stored at -20° C. overnight; thereafter it was thawed and centrifuged as described above. A sample of homogenized mixture corresponding to 0.5 g of brain was removed, the pH of the sample was adjusted to 8.0±0.1 with 0.1 molar tris-buffer of the above composition, and the sample was processed as described above for the determination of the noradrenaline content of heart and spleen, with the difference that 1.5 ml of 0.05 N perchloric acid were applied as eluting agent. 0.5 ml of the eluate were applied to determine the noradrenaline and dopamine content. The measurement was performed as described above, with the difference that samples of 0.5 ml were applied for the recording of the fluorescence of noradrenaline. The residue was placed for 50 minutes into a drying oven heated to 100° C.; thereafter the sample was cooled with ice water, and the fluorescence of dopamine was recorded at wavelengths of 325 nm (excitation) and 380 nm (emission).
In a further test series the serotonine and 5-hydroxy-indolylacetic acid contents were also determined, in addition to the determination of the noradrenaline and dopamine contents, from the same sample. In this instance the brains were homogenized in 10 ml of 75% ethanol, 0.2 ml of EDTA-Na2 and 5% of ascorbic acid were added to the homogenized mixtures, and the homogenized mixtures were maintained at -20° C. overnight. The mixtures were then centrifuged as described above, and 5.0 ml samples of the supernatant were removed. The samples were diluted with equal volumes of distilled water, and poured onto ion-exchange columns of 0.5×1.5 cm dimensions, filled with buffered Amberlite CG-30 (200 to 400 mesh). The columns were washed with 5 ml of distilled water followed with 1.0 ml of 0.2 N hydrochloric acid, and the first effluent and the aqueous wash were collected for the determination of 5-hydroxy-indolylacetic acid. Elution was continued with further 1.2 ml of 0.2 N hydrochloric acid in order to remove noradrenaline, dopamine and serotonine. Samples of 0.3 ml were used for the determinations. […]

Toxicity (LD50), rats = details: rat, in vivo, ip

SMILES: c1ccc(-c2ccccn2)nc1 [2,2-D, 2,2-dipyridyl, reference compound]
- Amine level, adrenal gland AD (adrenaline) (dopamine-β-hydroxylase [1]; 37.5 mg/kg): 80 percentages in relation to the controls
- Amine level, adrenal gland AD (adrenaline) (dopamine-β-hydroxylase [1]; 75 mg/kg): 63 percentages in relation to the controls
- dopamine-β-hydroxylase inhibition in vitro (dopamine-β-hydroxylase [2]): effective under in vitro conditions
- Amine level, spleen NA (noradrenaline) (dopamine-β-hydroxylase [3]): 100 percentages in relation to the controls
- Amine level, heart NA (noradrenaline) (dopamine-β-hydroxylase [4]; 37.5 mg/kg): 104 percentages in relation to the controls
- Amine level, heart NA (noradrenaline) (dopamine-β-hydroxylase [4]; 75 mg/kg): 58 percentages in relation to the controls
- Amine level, cerebrum DA (dopamine) (dopamine-β-hydroxylase [5]; 37.5 mg/kg): 116 percentages in relation to the controls
- Amine level, cerebrum NA (noradrenaline) (dopamine-β-hydroxylase [5]; 37.5 mg/kg): 79.5 percentages in relation to the controls
- Amine level, cerebrum DA (dopamine) (dopamine-β-hydroxylase [5]; 75 mg/kg): 95 percentages in relation to the controls
- Amine level, cerebrum NA (noradrenaline) (dopamine-β-hydroxylase [5]; 75 mg/kg): 41.2 percentages in relation to the controls
- Amine level, cerebrum SE (serotonine) (dopamine-β-hydroxylase [5]; 75 mg/kg): 100 percentages in relation to the controls
- LD50 (Toxicity (LD50), rats): 150 mg/kg
